Source: PubChem BioAssay AID1259407 (Chemical Carcinogenesis Research Information System (CCRIS), 2018)
Calls of active or inactive are those of the source. The rule behind the calls is not given here.

Test system: CCRIS mutagenicity, Ames/micronucleus/aberration tests
Test: CCRIS mutagenicity studies
[1] = Test System: AMES SALMONELLA TYPHIMURIUM, Strain/Indicator: TA98, Metabolic Activation: NONE, Method: PREINCUBATION
[2] = Test System: AMES SALMONELLA TYPHIMURIUM, Strain/Indicator: TA100, Metabolic Activation: NONE, Method: PREINCUBATION
[3] = Test System: AMES SALMONELLA TYPHIMURIUM, Strain/Indicator: TA1535, Metabolic Activation: NONE, Method: PREINCUBATION
[4] = Test System: AMES SALMONELLA TYPHIMURIUM, Strain/Indicator: TA1537, Metabolic Activation: NONE, Method: PREINCUBATION
[5] = Test System: AMES SALMONELLA TYPHIMURIUM, Strain/Indicator: TA98, Metabolic Activation: NONE, Method: STANDARD PLATE
[6] = Test System: AMES SALMONELLA TYPHIMURIUM, Strain/Indicator: TA100, Metabolic Activation: NONE, Method: STANDARD PLATE
[7] = Test System: AMES SALMONELLA TYPHIMURIUM, Strain/Indicator: TA97, Metabolic Activation: NONE, Method: STANDARD PLATE

For `CCCCCCCCCC`, the mutagenic call (Test System: AMES SALMONELLA TYPHIMURIUM, Strain/Indicator: TA97, Metabolic Activation: HAMSTER, LIVER, S-9, AROCLOR 1254 (10 OR 30%), Method: PREINCUBATION) was “inactive; negative”, the mutagenic call (Test System: AMES SALMONELLA TYPHIMURIUM, Strain/Indicator: TA97, Metabolic Activation: NONE, Method: PREINCUBATION) was “inactive; negative” and the mutagenic call (Test System: AMES SALMONELLA TYPHIMURIUM, Strain/Indicator: TA97, Metabolic Activation: RAT, LIVER, S-9, AROCLOR 1254 (5%), Method: PREINCUBATION) was “inactive; negative”. The mutagenic call (Test System: AMES SALMONELLA TYPHIMURIUM, Strain/Indicator: TA97, Metabolic Activation: RAT, LIVER, S-9, AROCLOR 1254 (10 OR 30%), Method: PREINCUBATION) was “inactive; negative”, the mutagenic call (Test System: AMES SALMONELLA TYPHIMURIUM, Strain/Indicator: TA98, Metabolic Activation: HAMSTER, LIVER, S-9, AROCLOR 1254 (10 OR 30%), Method: PREINCUBATION) was “inactive; negative” and the mutagenic call [1] was “inactive; negative”. The mutagenic call (Test System: AMES SALMONELLA TYPHIMURIUM, Strain/Indicator: TA98, Metabolic Activation: RAT, LIVER, S-9, AROCLOR 1254 (10 OR 30%), Method: PREINCUBATION) was “inactive; negative”, the mutagenic call (Test System: AMES SALMONELLA TYPHIMURIUM, Strain/Indicator: TA100, Metabolic Activation: HAMSTER, LIVER, S-9, AROCLOR 1254 (10 OR 30%), Method: PREINCUBATION) was “inactive; negative” and the mutagenic call [2] was “inactive; negative”. The mutagenic call (Test System: AMES SALMONELLA TYPHIMURIUM, Strain/Indicator: TA100, Metabolic Activation: RAT, LIVER, S-9, AROCLOR 1254 (10 OR 30%), Method: PREINCUBATION) was “inactive; negative”, the mutagenic call (Test System: AMES SALMONELLA TYPHIMURIUM, Strain/Indicator: TA1535, Metabolic Activation: HAMSTER, LIVER, S-9, AROCLOR 1254 (10 OR 30%), Method: PREINCUBATION) was “inactive; negative” and the mutagenic call [3] was “inactive; negative”. For the same compound, the mutagenic call (Test System: AMES SALMONELLA TYPHIMURIUM, Strain/Indicator: TA1535, Metabolic Activation: RAT, LIVER, S-9, AROCLOR 1254 (10 OR 30%), Method: PREINCUBATION) was “inactive; negative”, the mutagenic call (Test System: AMES SALMONELLA TYPHIMURIUM, Strain/Indicator: TA1537, Metabolic Activation: HAMSTER, LIVER, S-9, AROCLOR 1254 (30%), Method: PREINCUBATION) was “inactive; negative” and the mutagenic call [4] was “inactive; negative”. The mutagenic call (Test System: AMES SALMONELLA TYPHIMURIUM, Strain/Indicator: TA1537, Metabolic Activation: RAT, LIVER, S-9, AROCLOR 1254 (5 OR 10%), Method: PREINCUBATION) was “inactive; negative” and the mutagenic call (Test System: AMES SALMONELLA TYPHIMURIUM, Strain/Indicator: TA1537, Metabolic Activation: RAT, LIVER, S-9, AROCLOR 1254 (30%), Method: PREINCUBATION) was “inactive; negative”.

For `C=CC(O)CCCCC` (stereo not drawn), the mutagenic call (Test System: CHINESE HAMSTER V-79, Strain/Indicator: V-79 (HPRT)/6-THIOGUANINE, Metabolic Activation: NONE, Method: STANDARD PLATE) was “inactive; negative” and the mutagenic call (Test System: CHINESE HAMSTER V-79, Strain/Indicator: V-79 (HPRT)/6-THIOGUANINE, Metabolic Activation: RAT LIVER S-9, Method: STANDARD PLATE) was “inactive; negative”.

`O=C1c2ccccc2-c2ccc3c4c(ccc1c24)-c1ccccc1C3=O` was tested, and the mutagenic call (Test System: AMES SALMONELLA TYPHIMURIUM, Strain/Indicator: TA98, Metabolic Activation: HAMSTER, LIVER, S-9, AROCLOR 1254 (10%), Method: PREINCUBATION) was “inactive; negative”, the mutagenic call [1] was “inactive; negative” and the mutagenic call (Test System: AMES SALMONELLA TYPHIMURIUM, Strain/Indicator: TA98, Metabolic Activation: RAT, LIVER, S-9, AROCLOR 1254 (10%), Method: PREINCUBATION) was “inactive; negative”. The mutagenic call (Test System: AMES SALMONELLA TYPHIMURIUM, Strain/Indicator: TA100, Metabolic Activation: HAMSTER, LIVER, S-9, AROCLOR 1254 (10%), Method: PREINCUBATION) was “inactive; negative”, the mutagenic call [2] was “inactive; negative” and the mutagenic call (Test System: AMES SALMONELLA TYPHIMURIUM, Strain/Indicator: TA100, Metabolic Activation: RAT, LIVER, S-9, AROCLOR 1254 (10%), Method: PREINCUBATION) was “inactive; negative”. The mutagenic call (Test System: AMES SALMONELLA TYPHIMURIUM, Strain/Indicator: TA1535, Metabolic Activation: HAMSTER, LIVER, S-9, AROCLOR 1254 (10%), Method: PREINCUBATION) was “inactive; negative”, the mutagenic call [3] was “inactive; negative” and the mutagenic call (Test System: AMES SALMONELLA TYPHIMURIUM, Strain/Indicator: TA1535, Metabolic Activation: RAT, LIVER, S-9, AROCLOR 1254 (10%), Method: PREINCUBATION) was “inactive; negative”. The mutagenic call (Test System: AMES SALMONELLA TYPHIMURIUM, Strain/Indicator: TA1537, Metabolic Activation: HAMSTER, LIVER, S-9, AROCLOR 1254 (10%), Method: PREINCUBATION) was “inactive; negative”, the mutagenic call [4] was “inactive; negative” and the mutagenic call (Test System: AMES SALMONELLA TYPHIMURIUM, Strain/Indicator: TA1537, Metabolic Activation: RAT, LIVER, S-9, AROCLOR 1254 (10%), Method: PREINCUBATION) was “inactive; negative”. The mutagenic call (Test System: MOUSE LYMPHOMA, Strain/Indicator: L5178Y (TK+/TK-), Metabolic Activation: RAT, LIVER, S-9, AROCLOR, Method: SUSPENSION/PLATE) was “active; positive”.

With `O=CC(Cl)=C(Cl)Cl` the mutagenic call [5] was “active; positive” and the mutagenic call [6] was “active; positive”.

With `Cn1cnc2c(NO)ncnc21` the mutagenic call [7] was “inactive; negative”, the mutagenic call (Test System: AMES SALMONELLA TYPHIMURIUM, Strain/Indicator: TA97, Metabolic Activation: RAT, LIVER, S-9, AROCLOR 1254, Method: STANDARD PLATE) was “inactive; negative” and the mutagenic call [5] was “inactive; negative”. For the same compound, the mutagenic call (Test System: AMES SALMONELLA TYPHIMURIUM, Strain/Indicator: TA98, Metabolic Activation: RAT, LIVER, S-9, AROCLOR 1254, Method: STANDARD PLATE) was “active; positive”, the mutagenic call [6] was “inactive; negative” and the mutagenic call (Test System: AMES SALMONELLA TYPHIMURIUM, Strain/Indicator: TA100, Metabolic Activation: RAT, LIVER, S-9, AROCLOR 1254, Method: STANDARD PLATE) was “inactive; negative”.

In the case of `N/C(=N\O)c1ccc(O)c(O)c1`, the mutagenic call [7] is reported as “inactive; negative”, the mutagenic call (Test System: AMES SALMONELLA TYPHIMURIUM, Strain/Indicator: TA97, Metabolic Activation: RAT, LIVER, S-9, DELOR 103, Method: STANDARD PLATE) is reported as “inactive; negative” and the mutagenic call [5] is reported as “inactive; negative”. The mutagenic call (Test System: AMES SALMONELLA TYPHIMURIUM, Strain/Indicator: TA98, Metabolic Activation: RAT, LIVER, S-9, DELOR 103, Method: STANDARD PLATE) was “active; positive”, the mutagenic call [6] was “inactive; negative” and the mutagenic call (Test System: AMES SALMONELLA TYPHIMURIUM, Strain/Indicator: TA100, Metabolic Activation: RAT, LIVER, S-9, DELOR 103, Method: STANDARD PLATE) was “inactive; negative”. For the same compound, the mutagenic call (Test System: AMES SALMONELLA TYPHIMURIUM, Strain/Indicator: TA102, Metabolic Activation: NONE, Method: STANDARD PLATE) was “inactive; negative” and the mutagenic call (Test System: AMES SALMONELLA TYPHIMURIUM, Strain/Indicator: TA102, Metabolic Activation: RAT, LIVER, S-9, DELOR 103, Method: STANDARD PLATE) was “inactive; negative”.

In the case of `C#CCOCC[n+]1ccccc1/C=N/O`, the mutagenic call [7] is reported as “inactive; negative”, the mutagenic call (Test System: AMES SALMONELLA TYPHIMURIUM, Strain/Indicator: TA97, Metabolic Activation: RAT, LIVER, S-9, Method: STANDARD PLATE) is reported as “inactive; negative” and the mutagenic call [6] is reported as “inactive; negative”. For the same compound, the mutagenic call (Test System: AMES SALMONELLA TYPHIMURIUM, Strain/Indicator: TA100, Metabolic Activation: RAT, LIVER, S-9, Method: STANDARD PLATE) was “inactive; negative”, the mutagenic call (Test System: AMES SALMONELLA TYPHIMURIUM, Strain/Indicator: TA104, Metabolic Activation: NONE, Method: STANDARD PLATE) was “inactive; negative” and the mutagenic call (Test System: AMES SALMONELLA TYPHIMURIUM, Strain/Indicator: TA104, Metabolic Activation: RAT, LIVER, S-9, Method: STANDARD PLATE) was “inactive; negative”. The mutagenic call (Test System: AMES SALMONELLA TYPHIMURIUM, Strain/Indicator: TA1537, Metabolic Activation: NONE, Method: STANDARD PLATE) was “inactive; negative”, the mutagenic call (Test System: AMES SALMONELLA TYPHIMURIUM, Strain/Indicator: TA1537, Metabolic Activation: RAT, LIVER, S-9, Method: STANDARD PLATE) was “inactive; negative” and the mutagenic call (Test System: AMES SALMONELLA TYPHIMURIUM, Strain/Indicator: TA1538, Metabolic Activation: NONE, Method: STANDARD PLATE) was “inactive; negative”. The mutagenic call (Test System: AMES SALMONELLA TYPHIMURIUM, Strain/Indicator: TA1538, Metabolic Activation: RAT, LIVER, S-9, Method: STANDARD PLATE) was “inactive; negative”.
